Key:
[1] = molecular target: Serine/threonine-protein kinase OSR1 (Homo sapiens) (UniProt O95747); assay: Selectivity interaction (KinomeScan (DiscoverX)) EUB0000595a OXSR1; settings: at 10 µM
[2] = molecular target: T1, cGMP-dependent protein kinase 2 (Homo sapiens) (UniProt Q13237); assay: Selectivity interaction (ProQinase) EUB0000171b PRKG2
T1 sequence (whole entry): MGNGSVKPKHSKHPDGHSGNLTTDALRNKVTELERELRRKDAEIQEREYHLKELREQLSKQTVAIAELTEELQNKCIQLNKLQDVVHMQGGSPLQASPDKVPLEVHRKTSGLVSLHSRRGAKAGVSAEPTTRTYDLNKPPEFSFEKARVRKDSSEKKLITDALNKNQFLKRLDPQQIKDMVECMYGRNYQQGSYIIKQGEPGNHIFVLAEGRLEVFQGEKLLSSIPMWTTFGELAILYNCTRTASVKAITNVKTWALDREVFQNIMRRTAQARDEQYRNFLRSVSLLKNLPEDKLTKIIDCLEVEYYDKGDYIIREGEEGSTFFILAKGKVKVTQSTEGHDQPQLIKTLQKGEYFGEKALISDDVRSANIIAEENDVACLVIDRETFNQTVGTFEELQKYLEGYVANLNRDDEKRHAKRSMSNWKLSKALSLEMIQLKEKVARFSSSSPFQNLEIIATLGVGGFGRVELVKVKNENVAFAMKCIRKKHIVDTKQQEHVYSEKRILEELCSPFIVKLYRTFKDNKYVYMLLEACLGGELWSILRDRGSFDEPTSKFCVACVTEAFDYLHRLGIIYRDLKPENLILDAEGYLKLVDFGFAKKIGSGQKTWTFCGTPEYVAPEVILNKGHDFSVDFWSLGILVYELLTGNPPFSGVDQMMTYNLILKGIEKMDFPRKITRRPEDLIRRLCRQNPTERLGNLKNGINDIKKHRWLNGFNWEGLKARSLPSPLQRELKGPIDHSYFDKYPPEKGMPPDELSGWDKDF

[3] = molecular target: Serine/threonine-protein kinase B-raf (Homo sapiens) (UniProt P15056); assay: (§1) Selectivity interaction (KinomeScan (DiscoverX)) EUB0000045b BRAF
Sequence of Serine/threonine-protein kinase B-raf (Homo sapiens) (P15056 whole entry): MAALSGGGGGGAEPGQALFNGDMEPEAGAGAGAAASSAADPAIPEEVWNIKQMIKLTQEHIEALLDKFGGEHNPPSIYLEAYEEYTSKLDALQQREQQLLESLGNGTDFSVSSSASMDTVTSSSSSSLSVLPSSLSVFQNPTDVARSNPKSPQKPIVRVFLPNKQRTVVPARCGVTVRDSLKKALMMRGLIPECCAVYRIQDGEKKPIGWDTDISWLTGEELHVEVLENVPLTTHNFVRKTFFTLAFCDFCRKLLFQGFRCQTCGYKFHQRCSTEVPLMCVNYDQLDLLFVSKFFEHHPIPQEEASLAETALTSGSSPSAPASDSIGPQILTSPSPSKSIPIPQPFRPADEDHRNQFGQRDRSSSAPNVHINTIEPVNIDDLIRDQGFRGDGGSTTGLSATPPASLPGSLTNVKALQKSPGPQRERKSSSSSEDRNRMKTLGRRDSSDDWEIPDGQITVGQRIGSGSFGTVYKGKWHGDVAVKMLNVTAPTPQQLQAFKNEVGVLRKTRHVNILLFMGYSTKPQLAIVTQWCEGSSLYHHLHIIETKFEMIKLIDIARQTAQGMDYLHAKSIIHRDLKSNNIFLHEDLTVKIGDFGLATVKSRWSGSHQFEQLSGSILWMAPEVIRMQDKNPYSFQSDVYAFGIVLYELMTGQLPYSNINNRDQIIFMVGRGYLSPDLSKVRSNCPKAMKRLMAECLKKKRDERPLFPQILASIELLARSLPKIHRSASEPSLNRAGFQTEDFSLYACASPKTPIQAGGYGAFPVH

[4] = tested on: Serine/threonine-protein kinase B-raf (Homo sapiens), P15056 [V600E]; assay: as §1
Sequence of Serine/threonine-protein kinase B-raf (Homo sapiens), P15056 [V600E] (P15056 whole entry V600E): as the sequence (P15056 whole entry) above, with V600E counted along it

[5] = molecular target: Glycogen synthase kinase-3 alpha (Homo sapiens, UniProt P49840); assay: Selectivity interaction (KinomeScan (DiscoverX)) EUB0001619a GSK3A; settings: at 1 µM
Sequence of Glycogen synthase kinase-3 alpha (P49840 2-483 limits assumed): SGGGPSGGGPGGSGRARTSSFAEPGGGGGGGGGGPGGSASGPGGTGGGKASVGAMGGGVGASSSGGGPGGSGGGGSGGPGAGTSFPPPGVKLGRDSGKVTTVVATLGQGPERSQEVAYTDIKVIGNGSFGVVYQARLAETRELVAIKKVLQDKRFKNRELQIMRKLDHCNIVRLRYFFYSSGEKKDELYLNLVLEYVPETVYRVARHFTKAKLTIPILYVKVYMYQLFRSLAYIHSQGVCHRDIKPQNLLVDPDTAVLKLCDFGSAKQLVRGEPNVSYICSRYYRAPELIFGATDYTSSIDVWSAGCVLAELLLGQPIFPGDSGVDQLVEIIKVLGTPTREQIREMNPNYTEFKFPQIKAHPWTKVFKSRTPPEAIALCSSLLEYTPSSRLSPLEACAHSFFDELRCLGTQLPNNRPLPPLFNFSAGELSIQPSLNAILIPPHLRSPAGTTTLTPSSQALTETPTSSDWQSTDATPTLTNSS

[6] = molecular target: Tyrosine-protein kinase Fgr (Homo sapiens) (UniProt P09769); assay: Selectivity interaction (SelectScreen profiling (Invitrogen)) EUB0000607a FGR; settings: at 2 µM
Sequence of Tyrosine-protein kinase Fgr (Homo sapiens) (P09769 2-529 limits assumed): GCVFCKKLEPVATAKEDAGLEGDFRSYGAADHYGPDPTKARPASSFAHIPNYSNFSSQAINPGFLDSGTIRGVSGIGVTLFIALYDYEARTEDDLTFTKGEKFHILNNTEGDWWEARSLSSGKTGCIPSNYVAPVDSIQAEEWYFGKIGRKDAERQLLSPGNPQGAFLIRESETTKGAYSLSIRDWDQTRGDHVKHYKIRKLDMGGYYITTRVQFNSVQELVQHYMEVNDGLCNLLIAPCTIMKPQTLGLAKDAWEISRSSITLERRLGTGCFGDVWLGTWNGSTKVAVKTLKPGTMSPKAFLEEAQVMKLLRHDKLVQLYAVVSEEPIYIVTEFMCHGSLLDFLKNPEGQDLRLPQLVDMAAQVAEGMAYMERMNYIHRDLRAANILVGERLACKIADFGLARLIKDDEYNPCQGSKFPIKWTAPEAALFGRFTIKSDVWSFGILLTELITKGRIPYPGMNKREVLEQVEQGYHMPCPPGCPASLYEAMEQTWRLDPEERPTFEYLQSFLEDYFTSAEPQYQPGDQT

[7] = molecular target: T2, Mitogen-activated protein kinase kinase kinase 13 (Homo sapiens) (UniProt O43283); assay: Selectivity interaction (KinomeScan (DiscoverX)) EUB0000607a MAP3K13; settings: at 10 µM
T2 sequence (whole entry): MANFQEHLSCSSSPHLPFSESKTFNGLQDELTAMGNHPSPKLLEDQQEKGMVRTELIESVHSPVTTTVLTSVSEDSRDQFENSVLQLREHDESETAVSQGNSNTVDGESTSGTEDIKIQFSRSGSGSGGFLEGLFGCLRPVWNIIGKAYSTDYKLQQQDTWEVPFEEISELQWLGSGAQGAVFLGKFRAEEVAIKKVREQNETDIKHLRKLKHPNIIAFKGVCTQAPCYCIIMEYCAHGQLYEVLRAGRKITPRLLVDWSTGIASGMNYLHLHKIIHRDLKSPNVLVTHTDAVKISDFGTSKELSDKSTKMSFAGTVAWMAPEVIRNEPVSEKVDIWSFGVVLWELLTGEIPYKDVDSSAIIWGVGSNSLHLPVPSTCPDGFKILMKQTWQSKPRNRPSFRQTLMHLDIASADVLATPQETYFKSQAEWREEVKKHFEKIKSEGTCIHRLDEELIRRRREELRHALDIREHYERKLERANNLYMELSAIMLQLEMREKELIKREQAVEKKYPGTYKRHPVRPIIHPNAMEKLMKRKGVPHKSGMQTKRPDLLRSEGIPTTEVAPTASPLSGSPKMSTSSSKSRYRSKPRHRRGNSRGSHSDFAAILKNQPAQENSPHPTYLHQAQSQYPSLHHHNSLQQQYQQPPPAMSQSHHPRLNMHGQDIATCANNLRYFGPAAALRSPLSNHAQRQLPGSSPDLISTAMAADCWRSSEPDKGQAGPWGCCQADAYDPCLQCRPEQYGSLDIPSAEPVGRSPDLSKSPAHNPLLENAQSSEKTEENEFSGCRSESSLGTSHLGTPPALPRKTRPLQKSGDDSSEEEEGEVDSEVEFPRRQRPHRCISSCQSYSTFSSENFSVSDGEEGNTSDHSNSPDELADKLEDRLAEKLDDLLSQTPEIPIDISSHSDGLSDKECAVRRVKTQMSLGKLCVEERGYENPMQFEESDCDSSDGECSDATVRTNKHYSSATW

[8] = molecular target: Leucine-rich repeat serine/threonine-protein kinase 2 (Homo sapiens, UniProt Q5S007); assay: (§2) Selectivity interaction (KinomeScan (DiscoverX)) EUB0000607a LRRK2; settings: at 10 µM
Sequence of Leucine-rich repeat serine/threonine-protein kinase 2 (Q5S007 whole entry): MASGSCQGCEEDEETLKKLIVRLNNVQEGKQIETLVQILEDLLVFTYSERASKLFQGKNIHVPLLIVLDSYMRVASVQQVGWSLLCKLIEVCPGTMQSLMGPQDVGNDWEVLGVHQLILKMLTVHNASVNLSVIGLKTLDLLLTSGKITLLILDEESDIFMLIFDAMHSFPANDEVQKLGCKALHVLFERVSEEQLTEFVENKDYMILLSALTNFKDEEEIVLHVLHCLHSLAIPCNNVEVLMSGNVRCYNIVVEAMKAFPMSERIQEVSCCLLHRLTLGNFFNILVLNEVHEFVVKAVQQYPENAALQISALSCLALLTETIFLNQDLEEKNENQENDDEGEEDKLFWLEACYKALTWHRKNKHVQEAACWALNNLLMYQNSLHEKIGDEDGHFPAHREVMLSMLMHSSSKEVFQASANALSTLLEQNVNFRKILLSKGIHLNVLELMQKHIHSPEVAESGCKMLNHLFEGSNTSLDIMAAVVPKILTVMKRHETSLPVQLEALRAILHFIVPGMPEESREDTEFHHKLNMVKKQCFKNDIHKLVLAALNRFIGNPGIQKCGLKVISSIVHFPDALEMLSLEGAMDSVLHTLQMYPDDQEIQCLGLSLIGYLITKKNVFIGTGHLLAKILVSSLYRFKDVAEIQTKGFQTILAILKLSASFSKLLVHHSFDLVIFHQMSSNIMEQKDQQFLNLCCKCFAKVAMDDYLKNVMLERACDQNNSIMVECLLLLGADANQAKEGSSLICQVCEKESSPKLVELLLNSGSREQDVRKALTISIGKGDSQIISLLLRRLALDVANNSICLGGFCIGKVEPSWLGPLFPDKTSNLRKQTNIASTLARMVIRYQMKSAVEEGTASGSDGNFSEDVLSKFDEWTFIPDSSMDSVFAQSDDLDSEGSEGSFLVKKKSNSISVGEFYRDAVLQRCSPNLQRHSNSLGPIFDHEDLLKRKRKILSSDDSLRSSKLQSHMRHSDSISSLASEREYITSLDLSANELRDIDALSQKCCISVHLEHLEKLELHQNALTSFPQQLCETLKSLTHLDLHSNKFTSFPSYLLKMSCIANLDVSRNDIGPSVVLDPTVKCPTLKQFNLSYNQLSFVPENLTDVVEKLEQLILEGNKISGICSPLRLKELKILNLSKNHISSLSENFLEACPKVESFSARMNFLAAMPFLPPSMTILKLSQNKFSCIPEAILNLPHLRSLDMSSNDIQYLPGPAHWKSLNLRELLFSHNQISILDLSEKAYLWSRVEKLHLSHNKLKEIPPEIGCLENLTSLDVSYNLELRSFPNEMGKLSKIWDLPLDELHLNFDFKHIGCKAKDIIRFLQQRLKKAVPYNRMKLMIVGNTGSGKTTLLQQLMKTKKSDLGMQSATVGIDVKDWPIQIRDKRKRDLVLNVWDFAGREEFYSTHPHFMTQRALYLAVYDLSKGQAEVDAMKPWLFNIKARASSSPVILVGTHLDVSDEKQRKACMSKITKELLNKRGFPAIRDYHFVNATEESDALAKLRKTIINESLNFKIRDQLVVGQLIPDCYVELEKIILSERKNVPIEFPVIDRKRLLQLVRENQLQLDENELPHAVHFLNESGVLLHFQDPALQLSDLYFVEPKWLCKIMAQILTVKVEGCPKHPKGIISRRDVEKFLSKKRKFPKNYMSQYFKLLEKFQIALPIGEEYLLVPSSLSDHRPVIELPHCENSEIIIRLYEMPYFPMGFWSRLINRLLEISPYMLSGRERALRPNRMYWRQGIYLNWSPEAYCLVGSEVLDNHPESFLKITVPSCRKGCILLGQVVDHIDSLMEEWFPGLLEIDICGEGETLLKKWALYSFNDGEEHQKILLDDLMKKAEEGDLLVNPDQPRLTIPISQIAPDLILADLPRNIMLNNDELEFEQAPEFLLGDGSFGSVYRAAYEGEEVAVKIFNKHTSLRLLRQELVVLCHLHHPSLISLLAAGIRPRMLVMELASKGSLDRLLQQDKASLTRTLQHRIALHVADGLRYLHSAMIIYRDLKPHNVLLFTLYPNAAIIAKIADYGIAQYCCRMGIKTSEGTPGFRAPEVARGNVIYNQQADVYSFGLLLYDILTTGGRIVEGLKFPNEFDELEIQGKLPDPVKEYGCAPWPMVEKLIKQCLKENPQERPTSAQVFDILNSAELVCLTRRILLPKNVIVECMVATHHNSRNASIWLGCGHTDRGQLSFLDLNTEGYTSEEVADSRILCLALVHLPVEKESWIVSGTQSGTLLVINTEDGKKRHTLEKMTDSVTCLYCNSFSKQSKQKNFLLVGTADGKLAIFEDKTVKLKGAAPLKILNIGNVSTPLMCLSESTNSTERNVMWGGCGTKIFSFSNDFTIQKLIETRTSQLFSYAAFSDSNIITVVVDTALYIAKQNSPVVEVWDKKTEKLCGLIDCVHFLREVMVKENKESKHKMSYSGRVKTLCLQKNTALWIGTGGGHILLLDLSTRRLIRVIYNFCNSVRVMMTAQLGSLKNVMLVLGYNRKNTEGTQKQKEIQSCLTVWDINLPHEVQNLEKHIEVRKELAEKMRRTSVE

[9] = tested on: Leucine-rich repeat serine/threonine-protein kinase 2 (Homo sapiens), Q5S007 [G2019S]; assay: as §2; settings: at 10 µM
Sequence of Leucine-rich repeat serine/threonine-protein kinase 2 (Homo sapiens), Q5S007 [G2019S] (Q5S007 whole entry G2019S): as the sequence (Q5S007 whole entry) above, with G2019S counted along it

Sequence of Serine/threonine-protein kinase OSR1 (Homo sapiens) (O95747 2-527 limits assumed): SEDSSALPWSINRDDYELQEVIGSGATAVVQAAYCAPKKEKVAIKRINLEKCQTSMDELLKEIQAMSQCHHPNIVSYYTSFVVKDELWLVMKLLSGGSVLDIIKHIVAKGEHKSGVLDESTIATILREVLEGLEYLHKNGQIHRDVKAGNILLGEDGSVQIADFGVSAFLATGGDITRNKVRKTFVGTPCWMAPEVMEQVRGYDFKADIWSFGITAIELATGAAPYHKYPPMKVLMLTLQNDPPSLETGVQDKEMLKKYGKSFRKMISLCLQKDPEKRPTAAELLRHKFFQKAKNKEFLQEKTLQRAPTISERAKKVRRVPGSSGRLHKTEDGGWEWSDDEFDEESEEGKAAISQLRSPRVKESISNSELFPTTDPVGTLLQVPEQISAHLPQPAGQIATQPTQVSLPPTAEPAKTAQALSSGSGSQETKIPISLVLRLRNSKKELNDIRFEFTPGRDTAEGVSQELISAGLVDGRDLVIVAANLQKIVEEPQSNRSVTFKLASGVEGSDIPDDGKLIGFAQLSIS

`COCC(=O)NC/C=C/c1ccc2ncnc(Nc3ccc(Oc4ccc(C)nc4)c(C)c3)c2c1` [CP-724714] was tested, and the % of control [1] was 100%.

With `C=CC(=O)Nc1cccc(C(=O)Nc2ccc(Nc3cc(-c4[nH]c(SC)nc4C)ccn3)cc2)c1` the % of control ([2]; at 1 µM) was 84% and the % of control ([2]; at 5 µM) was 81%.

`C=CC(=O)Nc1cc(-n2c(=O)ccc3cnc4ccc(-c5ccc(NS(C)(=O)=O)cc5)cc4c32)ccc1C` was tested, and the % of control ([3]; at 1 µM) was 100%, the % of control ([3]; at 10 µM) was 100% and the % of control ([4]; at 1 µM) was 100%. It also gave a % of control ([4]; at 10 µM) of 100%.

Molecule `N#Cc1cccc(-c2c[nH]c3ncnc(N4CCOCC4)c23)c1` has a % of control [5] of 100%.

With `CNC(=O)Nc1ccc(-c2nc(N3CC4CCC(C3)O4)c3cnn(C4CCC5(CC4)OCCO5)c3n2)cc1` the % of inhibition [6] was 1%, the % of control [7] was 82% and the % of control [8] was 82%. The % of control [9] was 65%.

— ChEMBL document CHEMBL5465560, “Selectivity Literature for EUbOPEN Chemogenomic Library” (2024)
